Measurements from US8450525B2, “Histone deacetylase inhibitors” (Orchid Chemicals & Pharmaceuticals Limited, priority 2007, dated 2013).

Tests used:
U251 (glioma) cells = test: Anti-cancer screen, growth inhibition (MTT); type: cell-based; conditions: Homo sapiens, U-251 cells, 48 hours of incubation
Method in brief: (§1)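 MTT added for 3 h at 37° C, formazan dissolved in DMSO and A570 read. A T0 plate was measured at compound addition.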

NCI-H460 (lung) cells = test: Anti-cancer screen, growth inhibition (MTT); type: cell-based; conditions: Homo sapiens, 48 hours of incubation
Method in brief: as §1

HCT 116 (colon) cells = test: Anti-cancer screen, growth inhibition (MTT); type: cell-based; conditions: Homo sapiens, HCT-116 cells, 48 hours of incubation
Method in brief: as §1

[1] = biological target: T1, HDAC (Mouse Liver Extract); test: HDAC inhibition assay using Boc-Lys(Ac)-AMC substrate, mouse liver enzyme; type: biochemical;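 for IC50: IC50 for inhibition of HDAC activity in mouse liver extract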
T1 construct: Mouse liver enzyme (10 mg/ml) was diluted 1:6 with HDAC buffer

| Structure (SMILES) | GI50 (U251 (glioma) cells) | GI50 (NCI-H460 (lung) cells) | GI50 (HCT 116 (colon) cells) | IC50 [1] | HDAC Inhibition % (1 μM) [1] | HDAC Inhibition % (10 μM) [1] |
| --- | --- | --- | --- | --- | --- | --- |
| Cc1ccc(/C(=C\c2ccc(/C=C/C(=O)NCCCCCC(=O)NO)cc2)C(=O)NC2CC2)cc1 [Example 81, 6-((1E)-3-(4-(3-(Cyclopropylamino)-2-(4-methylphenyl)-3-oxoprop-1-en-1-yl)phenyl)acrylamido)-N-hydroxyhexanamide] | 0.4 µM | 11 µM | 5 µM | 10 nM | 97.0% | 100.0% |
| COc1ccc(/C(=C\c2ccc(C(=O)Nc3ccccc3N)cc2)C(=O)Nc2ccccc2)cc1OC [Example 118, N-(2-Aminophenyl)-4-(3-(phenylamino)-2-(3,4-dimethoxyphenyl)-3-oxoprop-1-en-1-yl)benzamide] | 4.2 µM | 90 µM | 10 µM | – | 21.0% | 46.0% |
| Nc1ccccc1NC(=O)/C=C/c1ccc(/C=C(/C(=O)NC2CC2)c2ccc(F)c(F)c2)cc1 [Example 73, N-Cyclopropyl-3-(4-((1E)-3-(2-aminophenylamino)-3-oxoprop-1-en-1-yl}phenyl)-2-(3,4-difluorophenyl)acrylamide] | > 100 µM | > 100 µM | 10.1 µM | – | 12.0% | 21.8% |
| NC(=O)/C(=C/c1ccc(/C=C/C(=O)NO)cc1)c1ccccc1 [Example 4, 2-Phenyl-3-(4-((1E)-3-(hydroxyamino)-3-oxoprop-1-en-1-yl)phenyl) acrylamide] | 11 µM | 35 µM | 7.3 µM | – | 75.0% | 97.8% |
| Nc1ccccc1NC(=O)c1ccc(/C=C(/C(=O)NC2CC2)c2cccnc2)cc1 [Example 127, N-(2-Aminophenyl)-4-[3-(cyclopropylamino)-3-oxo-2-pyridin-3-yl-prop-1-en-1-yl]benzamide] | 40 µM | 12 µM | 22 µM | – | 36.9% | 55.4% |
| O=C(/C=C/c1ccc(/C=C(/C(=O)Nc2ccccc2)c2ccc(OCC3CC3)cc2)cc1)NO [Example 46, 2-(4-Cyclopropylmethoxyphenyl)-3-(4-((1E)-3-(hydroxyamino)-3-oxoprop-1-en-1-yl)phenyl)-N-phenylacrylamide] | 2.8 µM | 0.8 µM | 1.6 µM | 19 nM | 73.5% | 98.5% |
| O=C(/C=C/c1ccc(/C=C(/C(=O)NC2CC2)c2ccccc2Cl)cc1)NCCCCCC(=O)NO [Example 77, 6-((1E)-3-(4-(3-(Cyclopropylamino)-2-(2-chlorophenyl)-3-oxoprop-1-en-1-yl)phenyl)acrylamido)-N-hydroxyhexanamide] | 10.5 µM | 2.3 µM | 5 µM | 3 nM | 97.8% | 100.0% |
| COc1ccc(/C(=C\c2ccc(/C=C/C(=O)NO)cc2)C(=O)NC2CC2)cc1 [Example 9, N-Cyclopropyl-2-(4-methoxyphenyl)-3-(4-((1E)-3-(hydroxyamino)-3-oxoprop-1-en-1-yl)phenyl)acrylamide] | 0.7 µM | 15 µM | 15 µM | – | 91.7% | 99.5% |
| Cc1ccc(/C(=C\c2ccc(/C=C/C(=O)Nc3ccccc3N)cc2)C(=O)NC2CC2)cc1 [Example 67, (E)-N-Cyclopropyl-3-(4-((1E)-3-(2-aminophenylamino)-3-oxoprop-1-en-1-yl}phenyl)-2-(4-methylphenyl)acrylamide] | > 100 µM | 40 µM | 36 µM | – | 31.5% | 59.5% |
| O=C(/C=C/c1ccc(/C=C(/C(=O)NC2CC2)c2ccccc2Cl)cc1)NO [Example 10, N-Cyclopropyl-2-(2-chlorophenyl)-3-(4-((1E)-3-(hydroxyamino)-3-oxoprop-1-en-1-yl)phenyl)acrylamide] | 1.5 µM | 32 µM | 0.8 µM | – | 85.8% | 100.0% |
| O=C(/C=C/c1ccc(/C=C(/C(=O)N2CCSCC2)c2ccc(F)cc2)cc1)NO [Example 18] | 3.5 µM | 1.1 µM | 2.7 µM | 100 nM | 77.5% | 96.0% |
| CC(C)NC(=O)/C(=C/c1ccc(C(=O)Nc2ccccc2N)cc1)c1ccc(F)cc1 [Example 131, N-(2-Aminophenyl)-4-(2-(4-fluorophenyl)-3-(isopropylamino)-3-oxoprop-1-en-1-yl)benzamide] | 19 µM | 18 µM | 4 µM | – | 28.6% | 57.4% |
| O=C(/C=C/c1ccc(/C=C(/C(=O)NC2CC2)c2cccc(Cl)c2)cc1)NCCCCCC(=O)NO [Example 80, 6-((1E)-3-(4-(3-(Cyclopropylamino)-2-(3-chlorophenyl)-3-oxoprop-1-en-1-yl)phenyl)acrylamido)-N-hydroxyhexanamide] | 0.8 µM | 19 µM | 4 µM | < 1 nM | 100.0% | 100.0% |
| Nc1ccccc1NC(=O)/C=C/c1ccc(/C=C(/C(=O)N2CCOCC2)c2ccccc2F)cc1 [Example 72] | 20 µM | 50 µM | 20 µM | – | 24.8% | 52.0% |
| COc1ccc(/C(=C\c2ccc(/C=C/C(=O)NCCCCCC(=O)NO)cc2)C(=O)NC2CC2)cc1 [Example 84, 6-((1E)-3-(4-(3-(Cyclopropylamino)-2-(4-methoxyphenyl)-3-oxoprop-1-en-1-yl)phenyl)acrylamido)-N-hydroxyhexanamide] | 24 µM | 70 µM | 24 µM | – | 93.5% | 96.5% |
| O=C(/C=C/c1ccc(/C=C(/C(=O)Nc2ccccc2)c2cccc(OCC3CC3)c2)cc1)NO [Example 42, 2-(3-Cyclopropylmethoxyphenyl)-3-(4-((1E)-3-(hydroxyamino)-3-oxoprop-1-en-1-yl)phenyl)-N-phenylacrylamide] | 5 µM | 2.6 µM | 5.2 µM | 280 nM | 81.4% | 97.6% |
| COc1ccc(/C(=C\c2ccc(/C=C/C(=O)NCCCCCC(=O)NO)cc2)C(=O)NC2CC2)cc1F [Example 88, 6-((1E)-3-(4-(3-(Cyclopropylamino)-2-(3-fluoro-4-methoxyphenyl)-3-oxoprop-1-en-1-yl)phenyl)acrylamido)-N-hydroxyhexanamide] | 18 µM | > 100 µM | 11 µM | – | 97.9% | 98.8% |
| Nc1ccccc1NC(=O)c1ccc(C=C(C(=O)NC2CC2)c2ccc(C(F)(F)F)cc2)cc1 [Example 106, N-(2-Aminophenyl)-4-(3-(cyclopropylamino)-2-(4-trifluoromethylphenyl)-3-oxoprop-1-en-1-yl)benzamide] | 15 µM | 20 µM | 4 µM | – | 35.8% | 42.9% |
